The CheMixHub drug solubility set

Experiment: xn = mol fraction of the nth substance listed, in the solute-free solvent

NC(N)=C([N+](=O)[O-])[N+](=O)[O-] + CS(C)=O + CC(=O)CC(C)C
solubility (g/100 g solution)
Conditions	293.15 K	298.15 K	303.15 K	308.15 K	313.15 K	318.15 K	323.15 K	328.15 K	333.15 K
x2 = 0.1634	1.9	1.97	2.1	2.25	2.41	2.57	2.74	2.92	3.13
x2 = 0.3054	5.11	5.4	5.7	5.99	6.28	6.6	6.95	7.29	7.68
x2 = 0.4297	9.16	9.64	10	10.4	10.8	11.2	11.7	12.2	12.7
x2 = 0.5397	13.1	13.7	14.2	14.6	15.1	15.6	16.1	16.7	17.2
x2 = 0.6375	17	17.6	18.1	18.6	19	19.6	20.1	20.7	21.3
x2 = 0.7251	20.2	21	21.5	21.9	22.5	23.1	23.7	24.3	25
x2 = 0.804	23.2	23.8	24.3	24.8	25.3	25.9	26.6	27.2	27.8
x2 = 0.8755	25.6	26.3	26.8	27.2	27.8	28.4	28.9	29.6	30.2
x2 = 0.9406	27.4	28.5	29	29.5	30.1	30.6	31.2	31.8	32.4

Nc1ncc(Br)nc1Br + CC(C)O + O
solubility (g/100 g solution)
Conditions	278.15 K	283.15 K	288.15 K	293.15 K	298.15 K	303.15 K	308.15 K	313.15 K	318.15 K	323.15 K
x2 = 0.03225	0.0151	0.0182	0.0212	0.0248	0.0285	0.032	0.0361	0.0405	0.0448	0.0495
x2 = 0.06974	0.0399	0.0475	0.0548	0.0636	0.0724	0.0809	0.0905	0.101	0.111	0.122
x2 = 0.1139	0.0745	0.0882	0.101	0.117	0.133	0.148	0.165	0.183	0.202	0.221
x2 = 0.1666	0.109	0.129	0.148	0.171	0.194	0.218	0.242	0.269	0.297	0.327
x2 = 0.2307	0.133	0.157	0.181	0.21	0.24	0.273	0.304	0.34	0.377	0.42
x2 = 0.3103	0.153	0.178	0.21	0.244	0.281	0.318	0.358	0.403	0.449	0.5
x2 = 0.4117	0.166	0.198	0.233	0.273	0.312	0.358	0.403	0.453	0.505	0.567
x2 = 0.5454	0.181	0.216	0.255	0.298	0.344	0.398	0.449	0.51	0.573	0.64
x2 = 0.7297	0.197	0.236	0.277	0.324	0.376	0.432	0.496	0.562	0.634	0.721

CC(C)C(=O)Nc1ccc([N+](=O)[O-])c(C(F)(F)F)c1 + CC(C)=O + CC(C)O
solubility (g/100 g solution)
Conditions	278.15 K	283.15 K	288.15 K	293.15 K	298.15 K	303.15 K	308.15 K	313.15 K	318.15 K	323.15 K
x2 = 0.1	25.4	27.7	30.1	33.4	37.2	41	44.5	48.4	53.4	59
x2 = 0.2	31.8	34.1	37	40.1	44.1	48	52	55.4	58.7	61.9
x2 = 0.3	35.7	39	42	45.1	48.5	52.2	55.4	58.4	61.4	64.6
x2 = 0.4	38.8	42.4	45.5	48.8	52.2	55.7	59.1	62.2	65	68
x2 = 0.5	42.2	45.7	48.9	52.2	55.5	58.8	61.7	65	68.2	71.2
x2 = 0.6	44.1	47.5	51.6	54.6	57.9	61.1	63.8	67.1	70.5	73.9
x2 = 0.7	47.6	50.5	54.4	57.4	60.6	64	66.9	70.1	73.3	76.3
x2 = 0.8	49.3	52.8	56.5	59.7	62.9	66.1	68.9	72	75.2	78.1
x2 = 0.9	51	54.5	58	61.3	64.7	67.9	71.1	74	76.8	79.6

O=c1cc(CBr)c2ccccc2[nH]1 + CCCO + O
solubility (g/100 g solution)
Conditions	278.15 K	283.15 K	288.15 K	293.15 K	298.15 K	303.15 K	308.15 K	313.15 K	318.15 K
x2 = 0.03225	0.0181	0.0232	0.0292	0.0365	0.0451	0.0563	0.0686	0.0826	0.0993
x2 = 0.06974	0.0316	0.038	0.0464	0.0561	0.0674	0.0807	0.0957	0.112	0.131
x2 = 0.1139	0.0465	0.0552	0.0643	0.0756	0.0895	0.104	0.119	0.138	0.157
x2 = 0.1666	0.0629	0.0722	0.084	0.096	0.11	0.125	0.142	0.159	0.18
x2 = 0.2307	0.0788	0.0907	0.102	0.115	0.131	0.146	0.164	0.181	0.202
x2 = 0.3103	0.0908	0.103	0.115	0.13	0.144	0.161	0.18	0.198	0.218
x2 = 0.4117	0.0987	0.11	0.124	0.14	0.155	0.172	0.189	0.207	0.229
x2 = 0.5454	0.103	0.114	0.128	0.141	0.156	0.173	0.189	0.209	0.228
x2 = 0.7297	0.102	0.112	0.124	0.138	0.151	0.166	0.183	0.2	0.217
